# According to patent publication US7649012B2, “Compounds, pharmaceutical compositions containing same, and methods of use for same” (FASgen, Inc., priority 2002, dated 2010):
# Where two headings read alike, the source gives them in different places.
# Key:
# [1] = test system: MCF-7 human breast cancer cells; assay: Crystal violet cell growth assay; type: cell-based; conditions: MCF7, MCF-7, 72 hours, read-out: Cr. Violet(IC50)
# Experimental: The crystal violet assay measure cell growth but not cytotoxicity. This assay employs crystal violet staining of fixed cells in 96-well plates with subsequent solubilization and measurement of OD490 on a spectrophotometer. The OD490 corresponds to cell growth per unit time measured. Cells are treated with the compounds of interest or vehicle controls and IC50 for each compound is computed.
# To measure the cytotoxicity of specific compounds against cancer cells, 5×10^4 MCF-7 human breast cancer cells, obtained from the American Type Culture Collection are plated per well in 24 well plates in DMEM medium with 10% fetal bovine serum, penicillin, and streptomycin. Following overnight culture at 37° C. and 5% CO2, the compounds to be tested, dissolved in DMSO, are added to the wells in 1 μl volume at the following concentrations: 50, 40, 30, 20, and 10 μg/ml in triplicate. Additional concentrations are tested if required. 1 μl of DMSO is added to triplicate wells are the vehicle control. C75 is run at 10, and 5 μg/ml in triplicate as positive controls.
# After 72 hours of incubation, cells are stained with 0.5 ml of Crystal Violet stain (0.5% in 25% methanol) in each well. After 10 minutes, wells are rinsed, air dried, and then solubilized with 0.5 ml 10% sodium dodecylsulfate with shaking for 2 hours.
# [2] = test system: MCF-7 human breast cancer cells; assay: XTT cytotoxicity assay; type: cell-based; conditions: MCF7, MCF-7, 72 hours, some cells marked (M)
# Experimental: The XTT assay is a non-radioactive alternative for the [^51 Cr] release cytotoxicity assay. XTT is a tetrazolium salt that is reduced to a formazan dye only by metabolically active, viable cells. The reduction of XTT is measured spectrophotometrically as OD490-OD650.
# To measure the cytotoxicity of specific compounds against cancer cells, 9×10^3 MCF-7 human breast cancer cells, obtained from the American Type Culture Collection are plated per well in 96 well plates in DMEM medium with 10% fetal bovine serum, insulin, penicillin, and streptomycin. Following overnight culture at 37° C. and 5% CO2, the compounds to be tested, dissolved in DMSO, are added to the wells in 1 μl volume at the following concentrations: 80, 40, 20, 10, 5, 2.5, 1.25, and 0.625 μg/ml in triplicate. Additional concentrations are tested if required. 1 μl of DMSO is added to triplicate wells are the vehicle control. C75 is run at 40, 20, […], and 5 μg/ml in triplicate as positive controls. After 72 hours of incubation, cells are incubated for 4 hours with the XTT reagent as per manufacturer's instructions (Cell Proliferation Kit II (XTT) Roche). Plates are read at OD490 and OD650 on a Molecular Devices SpectraMax Plus Spectrophotometer. Three wells containing the XTT reagent without cells serve as the plate blank. XTT data are reported as OD490-OD650-Averages and standard error of the mean are computed using SOFTmax Pro software (Molecular Dynamics).
# The IC50 for the compounds is defined as the concentration of drug leading to a 50% reduction in OD490-OD650 compared to controls. The OD490-OD650 are computed by the SOFTmax PRO software (Molecular Devices) for each compound concentration. IC50 is calculated by linear regression, plotting the FAS activity as percent of control versus drug concentrations. Linear regression, best-fit line, r^2, and 95% confidence intervals are determined using Prism Version 3.0 (Graph Pad Software).
# purified human FAS = target: T1, purified human FAS (Homo sapiens, UniProt P49327); assay: Measurement of FAS enzymatic activity (NADPH oxidation), IC50; type: biochemical
# T1 construct: Human FAS was purified from cultured ZR-75-1 human breast cancer cells; endogenous in cells; host or cells: ZR-75-1 human breast cancer cells (ATCC); endogenous enzyme purified by PEG precipitation and Mono Q anion exchange
# Experimental: Human FAS was purified from cultured ZR-75-1 human breast cancer cells obtained from the American Type Culture Collection. The procedure, adapted from Linn et al., 1981, and Kuhajda et al., 1994, utilizes hypotonic lysis, successive polyethyleneglycol (PEG) precipitations, and anion exchange chromatography. […] The lysate is centrifuged in JA-20 rotor (Beckman) at 20,000 rpm for 30 minutes at 4° C. and the supernatant is brought to 42 ml with lysis buffer. A solution of 50% PEG 8000 in lysis buffer is added slowly to the supernatant to a final concentration of 7.5%. After rocking for 60 minutes at 4° C., the solution is centrifuged in JA-20 rotor (Beckman) at 15,000 rpm for 30 minutes at 4° C. […] After the rocking and centrifugation is repeated as above, the pellet is resuspended overnight at 4° C. in 10 ml of Buffer A (20 mM K2HPO4, pH 7.4). After 0.45 μM filtration, the protein solution is applied to a Mono Q 5/5 anion exchange column (Pharmacia). The column is washed for 15 minutes with buffer A at 1 ml/minute, and bound material is eluted with a linear 60-ml gradient over 60 minutes to 1 M KCl. […] FAS protein concentration is determined using the Coomassie Plus Protein Assay Reagent (Pierce) according to manufacturer's specifications using BSA as a standard. This procedure results in substantially pure preparations of FAS (>95%) as judged by Coomassie-stained gels. FAS activity is measured by monitoring the malonyl-CoA dependent oxidation of NADPH spectrophotometrically at OD340 in 96-well plates (Dils et al and […] et al, 1975). […] For each experiment, cerulenin (Sigma) is run as a positive control along with DMSO controls, inhibitors, and blanks (no FAS enzyme) all in duplicate. The assay is performed on a Molecular Devices SpectraMax Plus Spectrophotometer. The plate containing FAS, buffers, inhibitors, and controls are placed in the spectrophotometer heated to 37° C. Using the kinetic protocol, the wells are blanked on duplicate wells containing 100 μl of 100 mM K2HPO4, pH 6.5 and the plate is read at OD340 at 10 sec intervals for 5 minutes to measure any malonyl-CoA independent oxidation of NADPH. The plate is removed from the spectrophotometer and malonyl-CoA (67.4 μM, final concentration per well) and […] (61.8 μM, final concentration per well) are added to each well except to the blanks. The plate is read again as above with the kinetic protocol to measure the malonyl-CoA dependent NADPH oxidation. The difference between the Δ OD340 for the malonyl-CoA dependent and non-malonyl-CoA dependent NADPH oxidation is the specific FAS activity. Because of the purity of the FAS preparation, non-malonyl-CoA dependent NADPH oxidation is negligible. […] Graphs of Δ OD340 versus time are plotted by the SOFTmax PRO software (Molecular Devices) for each compound concentration.
# [3] = Weight loss screen in Balb/C mice; type: in vivo; conditions: for change in vivo at 60 mg/kg: ip; for change in vivo at 60 mg/kg / change in vivo at 30 mg/kg: read-out: Weight Loss; for Deaths in weight loss screen: 60 mg/kg
# Experimental: Balb/C mice (Jackson Labs) are utilized for the initial weight loss screening. Animals are housed in temperature and 12 hour day/night cycle rooms and fed mouse chow and water ad lib. Three mice are utilized for each compound tested with vehicle controls in triplicate per experiment. For the experiments, mice are housed separately for each compound tested three mice to a cage. […] Mice are observed and weighed daily; average weights and standard errors are computed with Excel (Microsoft). The experiment continues until treated animals reach their pretreatment weights. […]
# [4] = Mus musculus, 24 h, 60 mg/kg intraperitoneally, day1
# [5] = Mus musculus, 72 h, 60 mg/kg intraperitoneally, day3
# [6] = Mus musculus, 48 h, 60 mg/kg intraperitoneally, day2
# [7] = Mus musculus, 96 h, 60 mg/kg intraperitoneally, day4
# T1 sequence (P49327 whole entry): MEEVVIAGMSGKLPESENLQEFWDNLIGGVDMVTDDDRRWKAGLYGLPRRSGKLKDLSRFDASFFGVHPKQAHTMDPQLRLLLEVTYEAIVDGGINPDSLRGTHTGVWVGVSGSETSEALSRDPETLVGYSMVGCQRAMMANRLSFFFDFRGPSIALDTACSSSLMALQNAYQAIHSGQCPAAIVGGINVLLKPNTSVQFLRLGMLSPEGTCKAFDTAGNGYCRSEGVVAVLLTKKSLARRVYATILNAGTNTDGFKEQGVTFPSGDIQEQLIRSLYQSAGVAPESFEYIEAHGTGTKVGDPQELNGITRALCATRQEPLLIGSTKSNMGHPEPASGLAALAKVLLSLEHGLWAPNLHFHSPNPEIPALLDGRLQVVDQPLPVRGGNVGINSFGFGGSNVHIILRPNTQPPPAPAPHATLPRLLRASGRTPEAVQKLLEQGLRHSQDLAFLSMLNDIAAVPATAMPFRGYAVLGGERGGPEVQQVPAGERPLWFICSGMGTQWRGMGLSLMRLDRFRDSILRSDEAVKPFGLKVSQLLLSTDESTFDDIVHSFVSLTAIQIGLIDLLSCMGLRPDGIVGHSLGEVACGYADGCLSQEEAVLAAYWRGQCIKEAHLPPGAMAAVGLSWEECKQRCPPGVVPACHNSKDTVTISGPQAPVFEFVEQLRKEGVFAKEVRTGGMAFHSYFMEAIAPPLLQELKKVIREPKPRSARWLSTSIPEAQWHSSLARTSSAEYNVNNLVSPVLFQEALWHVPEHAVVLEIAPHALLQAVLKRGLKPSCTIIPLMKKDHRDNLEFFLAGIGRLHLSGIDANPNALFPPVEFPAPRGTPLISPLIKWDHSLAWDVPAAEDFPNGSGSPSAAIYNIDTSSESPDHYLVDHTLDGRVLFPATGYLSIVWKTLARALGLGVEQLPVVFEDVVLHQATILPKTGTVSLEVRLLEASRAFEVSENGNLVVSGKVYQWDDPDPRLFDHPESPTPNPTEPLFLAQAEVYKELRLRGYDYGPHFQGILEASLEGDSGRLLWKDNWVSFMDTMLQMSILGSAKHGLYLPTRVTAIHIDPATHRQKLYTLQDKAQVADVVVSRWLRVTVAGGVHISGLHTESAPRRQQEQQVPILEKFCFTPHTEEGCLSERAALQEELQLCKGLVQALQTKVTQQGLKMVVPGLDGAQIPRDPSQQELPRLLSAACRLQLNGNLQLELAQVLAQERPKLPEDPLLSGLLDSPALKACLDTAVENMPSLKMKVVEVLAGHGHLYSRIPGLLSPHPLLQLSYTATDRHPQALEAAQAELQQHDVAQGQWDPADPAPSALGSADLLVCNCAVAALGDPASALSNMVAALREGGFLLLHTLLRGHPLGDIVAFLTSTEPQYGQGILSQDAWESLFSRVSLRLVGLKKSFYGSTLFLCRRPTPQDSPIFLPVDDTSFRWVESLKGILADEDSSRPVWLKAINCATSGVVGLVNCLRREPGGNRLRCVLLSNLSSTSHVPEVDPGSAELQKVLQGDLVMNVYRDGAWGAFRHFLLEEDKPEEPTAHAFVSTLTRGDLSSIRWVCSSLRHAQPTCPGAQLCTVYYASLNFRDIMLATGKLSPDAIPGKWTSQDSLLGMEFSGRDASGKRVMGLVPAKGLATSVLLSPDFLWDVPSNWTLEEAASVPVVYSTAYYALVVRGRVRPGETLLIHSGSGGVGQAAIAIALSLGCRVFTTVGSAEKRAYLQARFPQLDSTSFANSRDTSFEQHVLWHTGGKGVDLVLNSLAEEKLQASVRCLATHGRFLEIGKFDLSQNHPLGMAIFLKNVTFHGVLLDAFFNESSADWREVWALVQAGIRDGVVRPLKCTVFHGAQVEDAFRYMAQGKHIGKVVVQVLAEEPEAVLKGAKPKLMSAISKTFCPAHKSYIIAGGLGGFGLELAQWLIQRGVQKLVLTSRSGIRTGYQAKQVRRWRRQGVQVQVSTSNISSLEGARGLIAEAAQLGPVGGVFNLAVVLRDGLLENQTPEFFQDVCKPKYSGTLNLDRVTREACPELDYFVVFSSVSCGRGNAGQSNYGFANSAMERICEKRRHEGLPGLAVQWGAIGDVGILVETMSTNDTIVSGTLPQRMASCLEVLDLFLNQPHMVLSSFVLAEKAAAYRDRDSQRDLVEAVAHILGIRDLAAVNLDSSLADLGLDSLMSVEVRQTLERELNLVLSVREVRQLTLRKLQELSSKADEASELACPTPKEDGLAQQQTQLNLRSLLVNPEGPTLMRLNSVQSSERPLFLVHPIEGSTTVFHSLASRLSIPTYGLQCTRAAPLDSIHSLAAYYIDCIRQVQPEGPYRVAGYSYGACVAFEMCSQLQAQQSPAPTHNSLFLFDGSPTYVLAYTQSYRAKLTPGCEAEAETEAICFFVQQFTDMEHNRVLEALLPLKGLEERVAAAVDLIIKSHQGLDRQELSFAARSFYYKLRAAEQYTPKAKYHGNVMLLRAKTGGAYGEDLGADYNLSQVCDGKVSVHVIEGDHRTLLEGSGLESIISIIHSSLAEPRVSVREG
IC50 [1] [µg/mL],IC50 (purified human FAS) [µM],FAS(IC50) (purified human FAS),SMILES,IC50 [2] [µg/mL],further results
> 50,339,,C/C=C/C(C)=C/C1(C)SC(=O)C=C1O (centres unmarked),> 80,"change in vivo at 60 mg/kg [3, 4]: 4.1%"
> 50,238,,CC/C=C/C=C/C1(C)SC(=O)C=C1O (centres unmarked),> 80,"change in vivo at 60 mg/kg ([3]; Mus musculus, 120 h, 60 mg/kg intraperitoneally, day5): 3.2%"
> 50,44.8,,C=C/C(C)=C/C1(C)SC(=O)C=C1O (centres unmarked),> 80,"change in vivo at 60 mg/kg [3, 5]: 7.8%"
21.4,,Neg,CCCCCCCCC1(C)SC(=O)C=C1OC (centres unmarked),16.4 ± 2.3,"change in vivo at 60 mg/kg [3, 4]: 6.1%"
15.9 ± 1.9,,Neg,CCCCCCCCC1(C)SC(=O)C(C)=C1OC (centres unmarked),17.3 ± 5.9,
22.3,,Neg,C=CCC1=C(OC)C(C)(CCCCCCCC)SC1=O (centres unmarked),55 ± 2,"change in vivo at 60 mg/kg [3, 4]: 7.9%"
33.7,,Neg,CCCCCCCC[C@@]1(C)SC(=O)C=C1OCC(=O)O,50.3 ± 2.8,
> 50,,Neg,CC1(Cc2ccccc2)SC(=O)C=C1O (centres unmarked),> 80,"change in vivo at 60 mg/kg [3, 6]: 1.6%"
20.9,,Neg,COC1=CC(=O)SC1(C)Cc1ccccc1 (centres unmarked),61.3 ± 3.9,
19.5,11.5,,CCCCCCCCC1(C)SC(=O)C(C(C)O)=C1O (centres unmarked),23.9 ± 2.9,
26.3,,Neg,CCCCCCCCC1(C)SC(=O)C=C1OCC(=O)NNC(=O)c1ccco1 (centres unmarked),26.4,"change in vivo at 60 mg/kg [3, 7]: 6.3%"
28.7,,Neg,CCCCCCCCC1(C)SC(=O)C=C1OCC(=O)NNC(C)=O (centres unmarked),25.3,"change in vivo at 60 mg/kg [3, 7]: 5.9%"
< 5,,Neg,CCCCCCCCC1(C)SC(=O)C=C1OCC(=O)NNCc1ccc(Cl)cc1 (centres unmarked),6.7,"change in vivo at 60 mg/kg [3, 6]: 1.4%"
9,,Neg,C=CCN(C)C(=O)COC1=CC(=O)SC1(C)CCCCCCCC (centres unmarked),9.2 ± 2.2,"change in vivo at 60 mg/kg [3, 5]: 1.5%"
9.5,,Neg,CCCCCCCCC1(C)SC(=O)C=C1OCc1ccccc1 (centres unmarked),29.2,"change in vivo at 60 mg/kg [3, 5]: 5.2%"
> 50,,Neg,C=CCC1(C)C(=O)S[C@](C)(CCCCCCCC)C1=O (mixture of isomers),50.4 ± 4.7,
16.3,,Neg,CCCCCC[C@@]1(C)SC(=O)C=C1OCCCCCl (racemic),20.8 ± 0.9,
10.3 ± 0.3,,Neg,CCCCCCCC[C@@]1(C)SC(=O)C=C1OCCCCCl (racemic),35.3 ± 2.2,
17,,Neg,CCCCCC[C@@]1(C)SC(=O)C=C1OCC(=O)OCC (racemic),39.6 ± 2.2,
32.5 ± 11.7,,Neg,CCCCCC[C@@]1(C)SC(=O)C=C1OCC(=O)NCC(=O)OC (racemic),40.5 ± 5.1,
12.6 ± 3.7,,Neg,CCCCCC[C@@]1(C)SC(=O)C=C1OCC(=O)NCCCBr (racemic),21.2 ± 1.1,
38.6,,Neg,CCCCCCCC[C@@]1(C)SC(=O)C=C1OC(=O)CC (racemic),26.8 ± 0.6,
45.3,,,CCCCCCCC[C@@]1(C)SC(=O)C(C(=O)C(F)(F)F)=C1O (racemic),18.4 ± 2.7,IC50 (purified human FAS; unit inferred): 121 µM
22.5,246,,CCCCCCCC[C@@]1(C)SC(=O)C=C1OC(=O)NC(C)C (racemic),45.7 ± 25.9,

SMILES,IC50 [1] [µg/mL],IC50 (purified human FAS) [µM],FAS(IC50) (purified human FAS),IC50 [2] [µg/mL],further results
CCCC/C=C/C=C/C1(C)SC(=O)C=C1O (centres unmarked),43.9 ± 4.8,36.1,,59.4 ± 6.4,"change in vivo at 60 mg/kg ([3]; Mus musculus, 144 h): 11%"
CCCCCCC1(C)SC(=O)C=C1O (centres unmarked),> 50,,Neg,> 80,"Deaths in weight loss screen ([3]; day4, three mice): 60 mg/kg: 3 of 3 dead(day4)"
CCCCCCCCC1(C)SC(=O)C=C1O (centres unmarked),28.7,18.6,,17.6 ± 0.1,"change in vivo at 30 mg/kg ([3]; Mus musculus, 72 h): 4.8%"
CCCCCCCCC1(C)SC(=O)C(C)=C1O (centres unmarked),29.4 ± 4.3,192,,48 ± 1.4,"change in vivo at 30 mg/kg ([3]; Mus musculus, 24 h): 1%; change in vivo at 60 mg/kg [3, 4]: 0%"
CCCCCCC1(C)SC(=O)C=C1OC (centres unmarked),26.3 ± 4.3,,Neg,9.4 ± 1.5,"Deaths in weight loss screen ([3]; day1, three mice): 3 of 3 dead; change in vivo at 30 mg/kg ([3]; Mus musculus, 24 h, 30 mg/kg, day1): 8.7%; change in vivo at 10 mg/kg ([3]; Mus musculus, 72 h, 10 mg/kg (multiple doses), day3): 1%"
CCCCCCCCC1(C)SC(=O)C(C(C)O)=C1OC (centres unmarked),23.2,9.32,,21 ± 2.9,"change in vivo at 30 mg/kg ([3]; Mus musculus, 48 h): 0.2%"
